Assay results taken from ChEMBL document CHEMBL1201862, “PubChem BioAssay data set” (2004).
Structures can show the parent of a compound that is named as a salt. Activity calls are given as the source filed them.

What was measured:
[1] = target: Kallikrein-7 (Homo sapiens, UniProt P49862); assay: Fluorescence Intensity-based biochemical primary high throughput dose response assay to identify activators of kallikrein-7 (K7) zymogen.
[2] = P. falciparum ATP4 D1247Y mutant growth inhibitors, dose response, NITD609-resistant line, SYBR Green, dry powder (AID 1159571); assay type: functional, cell-based;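 note: parasites synchronized at ring stage by sorbitol before testing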
[3] = P. falciparum 3D7-ScDHODH growth inhibitors, dose response, SYBR Green, dry powder samples (AID 1159570); assay type: functional, cell-based;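 note: parasite growth measured after 72 hours of compound exposure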
[4] = P. falciparum Dd2 growth inhibitors, dose response, SYBR Green, dry powder samples, set 9 (AID 1159568); assay type: functional, cell-based
[5] = HepG2 cell cytotoxicity, dose response, cytotoxicity control, plate reader, dry powder samples (AID 1159569); assay type: functional, cell-based;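 note: inhibitor potency with signal falling toward the positive control level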
[6] = P. falciparum Dd2 growth inhibitors, dose response, SYBR Green, cherry-picked samples (AID 1159567); assay type: functional, cell-based
[7] = P. falciparum Dd2 growth inhibitors, dose response, SYBR Green, dry powder samples (AID 1159566); assay type: functional, cell-based;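 note: potency for growth inhibition with lower SYBR green DNA signal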
[8] = cells; assay type: functional
[9] = HepG2 cell cytotoxicity, dose response, cytotoxicity control for non-replicating M. tuberculosis project (AID 489018); assay type: functional; conditions: Mycobacterium tuberculosis
[10] = Vero E6 cell cytotoxicity, dose response, cytotoxicity control for non-replicating M. tuberculosis project, secondary assay (AID 492998); assay type: functional, VeroE6; conditions: Vero C1008
[11] = THP-1 cell cytotoxicity, dose response, cytotoxicity control for non-replicating M. tuberculosis project (AID 489025); assay type: functional
[12] = target: T1, Short transient receptor potential channel 4 (Mus musculus, UniProt Q9QUQ5); assay: mouse TRPC4 channel activators, dose response, cell-based, HEK293 TRPC4/mu-opioid, Fluo-4 calcium (AID 434937); assay type: functional
T1 sequence (Q9QUQ5 whole entry): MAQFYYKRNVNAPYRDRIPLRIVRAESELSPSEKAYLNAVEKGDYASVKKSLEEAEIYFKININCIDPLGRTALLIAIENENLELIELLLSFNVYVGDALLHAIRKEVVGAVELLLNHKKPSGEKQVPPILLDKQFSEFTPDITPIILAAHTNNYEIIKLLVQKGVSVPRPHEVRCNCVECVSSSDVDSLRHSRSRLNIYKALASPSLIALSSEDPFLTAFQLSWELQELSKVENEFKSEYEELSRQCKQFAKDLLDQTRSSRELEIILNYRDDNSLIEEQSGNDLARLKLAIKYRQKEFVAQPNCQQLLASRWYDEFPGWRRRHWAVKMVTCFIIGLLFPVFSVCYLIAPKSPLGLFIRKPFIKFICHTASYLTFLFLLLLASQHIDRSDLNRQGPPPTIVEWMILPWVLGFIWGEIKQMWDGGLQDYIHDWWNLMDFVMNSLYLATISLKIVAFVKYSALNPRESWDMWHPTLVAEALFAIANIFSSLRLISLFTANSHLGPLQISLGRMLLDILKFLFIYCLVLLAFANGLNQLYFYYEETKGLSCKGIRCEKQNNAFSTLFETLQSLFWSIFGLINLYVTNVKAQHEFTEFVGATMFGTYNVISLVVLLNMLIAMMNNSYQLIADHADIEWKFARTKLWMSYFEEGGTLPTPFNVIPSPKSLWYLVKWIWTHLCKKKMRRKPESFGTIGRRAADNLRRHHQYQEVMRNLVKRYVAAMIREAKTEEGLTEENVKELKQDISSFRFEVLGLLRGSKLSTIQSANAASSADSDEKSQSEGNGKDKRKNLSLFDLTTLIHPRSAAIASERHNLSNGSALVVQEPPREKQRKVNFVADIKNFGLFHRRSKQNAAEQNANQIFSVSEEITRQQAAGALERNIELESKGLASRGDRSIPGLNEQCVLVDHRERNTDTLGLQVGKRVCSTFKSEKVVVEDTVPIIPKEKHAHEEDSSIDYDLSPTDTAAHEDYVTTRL

[13] = target: Cytochrome P450 3A4 (Homo sapiens, UniProt P08684);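 note: CYP3A4 tested as one member of a cytochrome P450 panel screen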
Sequence of Cytochrome P450 3A4 (P08684 whole entry): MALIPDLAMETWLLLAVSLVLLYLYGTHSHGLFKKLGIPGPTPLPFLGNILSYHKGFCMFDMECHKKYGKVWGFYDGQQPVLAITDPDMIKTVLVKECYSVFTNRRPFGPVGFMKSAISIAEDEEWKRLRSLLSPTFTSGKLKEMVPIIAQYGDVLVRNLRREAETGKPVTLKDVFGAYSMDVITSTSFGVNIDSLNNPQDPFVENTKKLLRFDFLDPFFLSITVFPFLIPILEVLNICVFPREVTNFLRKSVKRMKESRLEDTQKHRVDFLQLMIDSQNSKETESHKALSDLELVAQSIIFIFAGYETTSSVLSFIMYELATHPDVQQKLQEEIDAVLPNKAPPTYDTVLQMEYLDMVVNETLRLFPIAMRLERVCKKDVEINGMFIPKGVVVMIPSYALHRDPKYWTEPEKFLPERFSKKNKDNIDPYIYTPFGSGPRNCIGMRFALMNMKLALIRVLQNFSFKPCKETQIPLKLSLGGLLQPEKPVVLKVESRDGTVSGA

[14] = target: Cytochrome P450 2D6 (Homo sapiens, UniProt P10635);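 note: CYP2D6 member of a cytochrome P450 panel assay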
Sequence of Cytochrome P450 2D6 (P10635 whole entry): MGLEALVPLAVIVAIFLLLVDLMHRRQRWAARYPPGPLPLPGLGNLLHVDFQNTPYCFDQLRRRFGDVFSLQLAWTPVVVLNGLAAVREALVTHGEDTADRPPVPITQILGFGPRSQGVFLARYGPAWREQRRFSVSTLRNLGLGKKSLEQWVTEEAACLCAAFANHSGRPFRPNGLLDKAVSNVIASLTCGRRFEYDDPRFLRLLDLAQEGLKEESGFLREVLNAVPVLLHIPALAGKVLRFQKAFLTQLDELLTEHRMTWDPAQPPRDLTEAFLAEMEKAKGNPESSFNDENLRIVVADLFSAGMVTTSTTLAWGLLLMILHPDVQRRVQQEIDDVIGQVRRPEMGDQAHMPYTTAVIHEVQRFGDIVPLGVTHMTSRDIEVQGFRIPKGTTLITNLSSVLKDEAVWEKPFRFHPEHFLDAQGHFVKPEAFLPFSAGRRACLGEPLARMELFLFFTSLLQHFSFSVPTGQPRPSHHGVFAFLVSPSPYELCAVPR

[15] = target: Voltage-gated inwardly rectifying potassium channel KCNH2 (Homo sapiens, UniProt Q12809); conditions: Potency;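 note: confirmatory quantitative high-throughput screen measuring inhibition of hERG channel activity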
Sequence of Voltage-gated inwardly rectifying potassium channel KCNH2 (Q12809 whole entry): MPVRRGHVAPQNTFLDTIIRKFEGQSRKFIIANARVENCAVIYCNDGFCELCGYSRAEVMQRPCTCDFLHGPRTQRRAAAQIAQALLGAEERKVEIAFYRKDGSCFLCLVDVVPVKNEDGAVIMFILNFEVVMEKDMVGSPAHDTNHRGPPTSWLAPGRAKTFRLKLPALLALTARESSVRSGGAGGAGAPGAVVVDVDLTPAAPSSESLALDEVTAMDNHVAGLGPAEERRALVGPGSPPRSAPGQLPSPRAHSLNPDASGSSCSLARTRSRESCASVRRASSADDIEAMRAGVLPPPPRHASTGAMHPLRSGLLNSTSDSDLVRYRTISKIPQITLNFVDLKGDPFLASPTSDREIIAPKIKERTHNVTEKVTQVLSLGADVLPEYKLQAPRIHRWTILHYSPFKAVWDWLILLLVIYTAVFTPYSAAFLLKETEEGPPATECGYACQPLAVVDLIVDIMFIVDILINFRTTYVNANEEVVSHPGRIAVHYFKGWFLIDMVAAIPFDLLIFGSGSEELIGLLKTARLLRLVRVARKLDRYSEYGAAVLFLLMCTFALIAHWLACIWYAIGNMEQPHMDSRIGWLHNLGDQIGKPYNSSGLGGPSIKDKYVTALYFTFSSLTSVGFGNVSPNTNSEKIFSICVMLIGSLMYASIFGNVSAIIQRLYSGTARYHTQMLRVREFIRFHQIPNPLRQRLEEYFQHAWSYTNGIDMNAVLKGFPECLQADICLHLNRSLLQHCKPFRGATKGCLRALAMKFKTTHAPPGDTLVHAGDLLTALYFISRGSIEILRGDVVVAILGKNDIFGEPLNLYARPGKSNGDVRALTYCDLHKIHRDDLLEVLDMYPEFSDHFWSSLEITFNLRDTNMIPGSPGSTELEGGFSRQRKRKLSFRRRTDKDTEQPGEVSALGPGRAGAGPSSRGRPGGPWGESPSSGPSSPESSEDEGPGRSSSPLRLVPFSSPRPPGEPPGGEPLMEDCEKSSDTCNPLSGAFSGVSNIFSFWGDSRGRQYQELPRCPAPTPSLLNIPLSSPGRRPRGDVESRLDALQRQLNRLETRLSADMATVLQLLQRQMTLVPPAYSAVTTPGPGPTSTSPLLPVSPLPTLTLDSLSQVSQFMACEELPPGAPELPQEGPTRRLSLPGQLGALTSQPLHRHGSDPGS

[16] = target: T2, Heat shock factor protein 1 (Mus musculus, UniProt P38532); assay: HSF1 potentiators in luciferase reporter cells, confirmation, cell-based, NIH3T3, luminescence, dose retest (AID 435004); assay type: functional;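 note: stress induced by proteasome inhibitor MG132 added 30 min after compound; luciferase reporter driven by HSF1 response element in NIH3T3 cells; actives raise luminescence as potentiators of the MG132 stress response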
T2 sequence (P38532 whole entry): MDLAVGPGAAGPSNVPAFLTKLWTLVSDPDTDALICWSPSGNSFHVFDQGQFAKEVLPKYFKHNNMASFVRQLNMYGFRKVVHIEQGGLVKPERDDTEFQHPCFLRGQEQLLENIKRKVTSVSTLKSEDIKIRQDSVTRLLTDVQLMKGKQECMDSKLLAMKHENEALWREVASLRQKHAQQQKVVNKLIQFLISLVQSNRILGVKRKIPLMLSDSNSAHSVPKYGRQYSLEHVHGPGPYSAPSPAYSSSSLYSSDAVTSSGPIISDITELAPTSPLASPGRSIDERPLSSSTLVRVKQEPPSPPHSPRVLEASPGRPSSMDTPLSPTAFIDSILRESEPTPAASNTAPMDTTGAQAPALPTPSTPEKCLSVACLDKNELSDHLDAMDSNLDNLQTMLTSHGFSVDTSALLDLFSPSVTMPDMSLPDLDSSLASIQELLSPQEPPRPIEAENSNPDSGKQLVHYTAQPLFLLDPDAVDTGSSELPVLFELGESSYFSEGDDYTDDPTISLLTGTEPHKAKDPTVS

Sequence of Kallikrein-7 (P49862 whole entry): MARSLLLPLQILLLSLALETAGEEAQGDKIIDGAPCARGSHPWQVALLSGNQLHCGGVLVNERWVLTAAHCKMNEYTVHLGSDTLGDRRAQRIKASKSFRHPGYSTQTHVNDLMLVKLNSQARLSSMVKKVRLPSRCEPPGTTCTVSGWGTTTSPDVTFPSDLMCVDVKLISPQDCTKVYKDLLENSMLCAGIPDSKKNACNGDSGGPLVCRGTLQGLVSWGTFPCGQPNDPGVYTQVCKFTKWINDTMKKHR

With Nc1c(Cl)cc(Cl)cc1C(=O)OCC(=O)N1CCCC1 the EC50 [1] was > 69.5 µM (inactive).

For CC(C)NC(=O)N1[C@H](C#N)[C@H](c2ccc(C#CC3CCCCC3)cc2)[C@@H]1CO, the AC50 [2] was 0.676 µM (active), the AC50 [3] was 1.58 µM (active) and the AC50 [4] was 0.148 µM (active). For the same compound, the AC50 [5] was 28.6 µM (active), the AC50 [6] was 0.99 µM (active) and the AC50 [7] was 0.495 µM (active).

With Cc1ccc(-n2cc(CNCCc3nc(C)c[nH]3)c(-c3ccc(F)cc3)n2)cc1 the IC50 [8] was 11.5 µM (active), the CC50 [9] was 16.7 µM (active) and the CC50 [10] was 17.4 µM (active). For the same compound, the CC50 [11] was 24.1 µM (active) and the EC50 [12] was 6.68 µM (active).

For CCOC(=O)N1CCC2(CC1)NC(=O)c1ccccc1N2, the EC50 [1] was > 69.5 µM (inactive).

In the case of Cn1cnc2c(NC3CCCC3)ncnc21, the AC50 [13] is reported as 25.1 µM (inconclusive), the AC50 [14] is reported as 20 µM (inconclusive) and the AC50 [15] is reported as 1.41 µM (inconclusive).

With COc1ccc(C(CCNCc2ccccc2)c2ccc(F)cc2)cc1 (configuration not stated) the EC50 [16] was > 260 µM (inactive), the IC50 [8] was 18.7 µM (active) and the CC50 [9] was 14.6 µM (active). The CC50 [10] was 18 µM (active) and the CC50 [11] was 11.7 µM (active).

For COc1ccc(-c2ccc3c(c2)[C@H]2[C@H](CCN2C(=O)C2CCCC2)[C@H](CO)N3C)cc1, the AC50 [2] was 1.97 µM (active), the AC50 [3] was 2.27 µM (active) and the AC50 [5] was 16.1 µM (active). For the same compound, the AC50 [6] was 1.87 µM (active) and the AC50 [7] was 1.42 µM (active).

For CN(C)CCC(c1ccccc1)c1ccccn1 (configuration not stated) [PHENIRAMINE MALEATE], the AC50 [15] was 15.8 µM (inconclusive).
